Where “and” joins values, the source holds several entries; their conditions need not be identical. Equal values may be shown once. Read-outs that look alike come from different tables or passages of the source.

By solubility is commonly meant the dissolved amount per volume that the medium holds. Low readings indicate a poorly soluble substance, high ones a readily soluble substance.

The nature of data set [1]: UV-Vis absorption, fluorescence and quantum yield. It is filed as physicochemical. The settings on record: for Quantum Yield (PBS): λex = 479 nm (TQ Green), 406 nm (TQ Green-GSH); for Quantum Yield (Methanol): Rhodamine 123 as standard. An excerpt:
TQ Green absorbs at 479 nm and fluoresces at 590 nm (λex=488 nm, FIG. 3). The extinction coefficients of TQ Green and TQ Green-GSH at their maximum absorption wavelengths are (2.3±0.2)×10^4 M^−1·cm^−1 (a, =479 nm, Table 2) and (1.6±0.2)×10^4 M^−1·cm^−1 (λmax=407 nm, Table 1), respectively. Upon reacting with GSH, the Abs and Fl peaks shift hypsochromically to 406 and 463 nm (λex=405 nm), respectively. The Abs of TQ Green and TQ Green-GSH (the adduct between TQ Green and GSH) are close to 488 and 405 nm, respectively, which are two commonly used laser wavelengths for confocal microscopes. […]
NMR spectra were recorded on a Varian NMR (^1H at 400 MHz) spectrometer. Chemical shifts (δ) were given in ppm with reference to solvent signals [^1H NMR: CDCl3 (7.26), CD3OD (3.31)]. UV-Vis measurements were performed with 2×10 mm quartz cuvette in Cary 60 UV-is Spectrometer. Fluorescence measurements were performed with the same quartz cuvette in Cary Eclipse Fluorescence Spectrophotometer with an excitation slit of 5 nm, an emission slit of 10 nm and PMT at 650 V. Flash chromatography was performed on a Teledyne ISCO CombiFlashRf200. Olympus FV1000 laser scanning confocal microscope system was used for cell imaging. ESI mass spectrometry was measured on a BrukerMS microTOF ESI, at the Shared Equipment Authority at Rice University. Flow cytometry was performed on BD LSR II Flow Cytometer at BCM core facilities.
As summarized in Table 5, quantum yields of synthesized GSH probes and a GSH adduct with Rhodamine 123 as the standard were analyzed. Quantum yields were determined using a comparative method described previously. The bromine atom on the phenyl ring potentially enhances the push-pull effect of the coumarin-based fluorophore, thus increases the quantum yield.

Data set [2] in a line: Log D in octanol-PBS (pH 7.4) biphasic system. The following applies: octanol-PBS pH 7.4, read-out: Log D (pH = 7.4). The class given is physicochemical. The source says:
To further understand TQ Green distribution between hydrophobic and hydrophilic environments, Applicants measured the Log D values of TQ Green and TQ Green-GSH using an octanol-PBS (pH 7.4) biphasic system (Table 2). […] In addition, Applicants discovered that the absorbance maximum of TQ Green shifts from 480 nm to 455 nm when changing the solvents from PBS to octanol. Applicants hypothesize that if TQ Green is distributed in lipid membranes, the absorbance maximum and fluorescence intensity will change. […] Consistent with the Log D measurements, this experiment also supports the hypothesis that TQ Green accumulates in lipid membranes. Considering the high quantum yield of TQ Green in hydrophobic solvents, lipid enrichment of TQ Green seemingly complicates intracellular GSH quantification. […] However, the Kd′ values may be different under calibration conditions and inside cells, which may introduce a systemic error.

Data set [3] is described as follows: Solubility. The class given is physicochemical. The settings on record: PBS buffer, aqueous buffer.
Data set [4] concerns cells. As to the kind of experiment: Confocal imaging of probe interacting with cells (cell penetration). It is filed as cell-based. The procedure:
FIG. 10 provides confocal images at 488 nm channel of TQ Green (acid form, FIG. 10A), and TQ Green-AM (ester form, FIG. 10B) interacting with cells.
All cell lines used in this study were purchased from American Type Culture Collection (ATCC) and grown in DMEM (Gibco, 11965) media supplemented with 10% FBS and 1% 1003 Pen Strep (Gibco). Cells were cultured under a controlled atmosphere (37° C., 5% CO2). Glass dishes were used for cell culture due to confocal scanning requirements. Cells were treated with TQ Green-AM (20 nM-1 μM with 0.0025-1% DMSO in PBS) for 30 minutes, followed by two washing steps with tryptan blue and PBS prior to imaging. Fluorescent images were acquired with 405 nm laser/430-470 nm filter and 488 nm laser/575-620 nm filter. All the microscope settings were kept consistent in each experiment.

Data set [5] is described as follows: Reaction specificity of TQ Green: cysteine. The settings on record: 0.1 mM cysteine, within 2 hours, PBS pH 7.4. Here is the method:
For clarity, data points for TQ Green reaction with BSA, Cysteine, and PBS were offset by 0.1 units from each other on the y axis. Data points represent the absorbance of reaction mixtures of TQ Green (32 μM) with cysteine (100 μM, blue), BSA (5 mM, green), GSH (20 mM red) and water (black) in PBS (pH 7.4) at 480 nm, the maximum absorption wavelength for TQ Green.
Free cysteine and the surface exposed cysteine residues on proteins inside cells could potentially compete with GSH in TQ Green reactions. It is known that, in contrast to the 1-10 mM concentrations of GSH inside cells, cysteine concentrations are in the range of 0.1-1 mM, approximately an order of magnitude lower than GSH levels. Assuming cysteine and GSH have similar reactivities, the presence of cysteine will introduce an error no more than 10%.

The nature of data set [6]: Equilibrium (dissociation constant) of probe and GSH reaction, UV-Vis/fluorescence. It is filed as binding. Here is the method:
Applicants also determined Keq between TQ Green and GSH and the relationship of the ratiometric change as a function of GSH concentration. Kd′ is the apparent dissociation constant for the reaction between TQ Green and GSH. The following equation can be derived:
Plotting (R−Rmin)/(Rmax−R) as a function of GSH concentration afforded a superb linear relationship with r^2=0.999 (FIGS. 6-7).
TQ Green was dissolved in PBS buffer (10 mM, pH 7.4) containing 1% DMSO with concentration at 32 μM. GSH was dissolved in the same PBS buffer with concentration from 0-80 mM. Above solutions were mixed at 1:1 ratio. All solutions were protected with nitrogen and stored in glove box to prevent any oxygen entering the solution. Samples of all solutions were taken out at 1, 18, 72, and 144 hours after mixing. UV-Vis and fluorescence were measured for all solutions.
Compounds 3b-d were dissolved in DMSO (10 mM) and 1 eq of 2 M β-mercaptoethanol (BME) was added. Compounds 3a and TQ Green were dissolved in PBS buffer (10 mM, pH 7.4) with 1% DMSO. GSH solution was added to reach a final concentration of 80 mM with compound 3a at 10 μM and TQ Green at 16 μM, respectively. All solutions were then monitored continuously with UV-Vis and fluorimeter for 2 hours (Table 1).

Take `CCN(CC)c1ccc2cc(/C=C/C(=O)c3ccc(C(=O)O)cc3Br)c(=O)oc2c1` [TQ Green]: in data set [1] (PBS pH 7.4), the “Abs Max Wavelength” value is 479 nm and 480 nm. The “Fl Emission Max Wavelength” value in data set [1] (PBS pH 7.4, λex = 488 nm (TQ Green), λex = 405 nm (TQ Green-GSH)) is 590 nm. Further, the “Quantum Yield (PBS)” value in data set [1] is listed as 0.0094±0.0004; in data set [1] (listed as drawing 19), 0.0094 ± 0.0004. Also, the entries for the “Quantum Yield (Methanol)” value in data set [1] and in data set [1] (listed as drawing 18) were 0.16±0.05 and 0.16 ± 0.05, respectively. Moreover, the “Absorbance maximum in octanol” value in data set [1] (octanol) stood at 455 nm. Also, the logD in data set [2] worked out at 0.7. For the same compound, the solubility in data set [3] was above 500 µM. Further, the “Cell penetration (confocal, 488 nm channel)” value in data set [4] is “trapped in the membrane”. In data set [5], the Reaction with cysteine entry is listed as “did not observe appreciable reactions”. Further, the Kd came to 1.6 mM in data set [6] (deduced from Kd′ and absorption values at 488 nm, read-out: Kd (equilibrium dissociation constant)); 14.8 mM in data set [6] (reaction with various concentration of GSH in water/PBS pH 7.4, based on UV-Vis, read-out: Kd′ observed (apparent) dissociation constant).

(Values after patent publication US10921327B2, “Probes for quantitative imaging of thiols in various environments” (Baylor College of Medicine, priority 2014, dated 2021).)
